Data: paper PMC3650558, “A Yeast Chemical Genetic Screen Identifies Inhibitors of Human Telomerase” (Chemistry & Biology, 2013)
Entries after “also recorded” stand apart in the source; their conditions may differ.

Experiments:
pdr1DBD-cyc8 strain = assay: Growth of hyperpermeable yeast strain; details: 0.03-1 μM, irrespective of human telomerase expression status
W303-1a control strains = assay: Growth of control yeast strains; type: cell-based, S. cerevisiae; details: W303-1a cells alone; 500, 150, 50, 10 or 1 μM
[1] = target: purified human telomerase; design: method as in Damm et al., 2001; Pascolo et al., 2002; details: human telomerase in vitro; ref Damm et al., 2001; Pascolo et al., 2002; cited from earlier work
[2] = system: W303-1a cells expressing Cdc13-hTERT-FLAG + hTR (active human telomerase); assay: Yeast growth rescue screen (time to reach OD595 of 0.62 relative to DMSO); type: cell-based, S. cerevisiae; details: for Z Score: z = (x − μ)/σ of normalized time difference over all compounds in the bioactive library
Protocol: These 678 compounds were selected from a 50,000 member Maybridge library based upon a spectrum of growth inhibitory bioactivity in a drug pump-deficient yeast strain ([Ishizaki et al., 2010]). […] In each 96-well assay plate, growth of the query strain in the presence of compound (20 μM), beginning at the onset of the experimental growth phase (i.e., time course 2, from 43 hr onward), was normalized against DMSO treatment (Figures 2C and 2D; Figures S2D and S2E).
To conduct the HTS (Figure 2A), 98 μl (3 × 10^5 cells per milliliter) was dispensed into 96-well clear flat-bottomed microplates (Corning Costar) using a Biomek FX (Beckman Coulter). A small molecule bioactive library of 678 compounds was utilized for the screen, consisting of compounds selected from the Maybridge collection (Thermo Fisher Scientific). […] DMSO at 2% (v/v) and 20 μM cycloheximide (Sigma) final concentration were added as controls to each assay plate, into alternate wells in columns 1 and 12 using the Span 8 module of the Biomek FX. Nine plates were analyzed, 80 compounds per plate, with 16 wells for controls. After compound addition, the plates were sealed and followed for time course 1 (up to 39 hr) on a Sunrise plate reader (Tecan) at absorbance 595 nm, maintained at 30°C and shaking at 564 rpm. After time course 1, cells in assay plates were diluted to 3 × 10^5 cells per milliliter in fresh media containing galactose using the Biomek FX. The plates were preincubated in galactose-containing media at 30°C for 3 hr (to allow a period of recovery from the stationary phase in the absence of compound), 2 μl of each compound or control was added to plates as described earlier, returned to the plate readers, and followed for time course 2 (up to 86 hr), for a total of ∼128 elapsed hours.
Growth curves were analyzed using a growth curve analysis tool implemented in R. After smoothing of growth curves, the time required for cells induced with human telomerase to reach an OD595 of 0.62 in the presence of each compound during time course 2 was derived using a data-based approach ([Warringer and Blomberg, 2003]). The time to reach an OD595 of 0.62 for each compound was normalized to the average DMSO value from each assay plate (to arrive at a normalized value, x, for each compound) and used to generate heatmaps as shown in Figure 2C. Z scores were calculated based on the equation: z = (x − μ)/σ, where μ is the mean time difference for all compounds in the bioactive library and σ is the SD for all compounds in the bioactive library.

[3] = target: T1, purified recombinant human telomerase (Homo sapiens, UniProt O14746); assay: Telomerase repeat amplification protocol (TRAP) assay, purified enzyme; type: biochemical; details: 200, 100, 20, 10 or 2 μM; 15 min preincubation
T1 construct: made in house
Protocol: Figure 3 Assessment of Human Telomerase Inhibition In Vitro (A) Chemical structures of BIBR1532 and hit compounds SEW05920, SPB03924, and CD11359. (B) Representative gel of the telomerase repeat addition protocol (TRAPeze, Millipore) after addition of RJC00417, SEW05920, SPB03922, and RH00646 to recombinant human telomerase purified in vitro ([Beattie et al., 1998]; [Oulton and Harrington, 2004]) (n = 3). Lanes 1–5, treatment with 200, 100, 20, 10, or 2 μM RJC00417; lanes 6–10, treatment with 200, 100, 20, 10, or 2 μM SEW05920; lanes 11–15, treatment with 200, 100, 20, 10, or 2 μM SPB03922; lanes 16–20, treatment with 200, 100, 20, 10, or 2 μM RH00646; lane 21, treatment with 2% v/v DMSO; lane 22, pretreatment with ribonuclease A. IC; internal PCR control (36 base pairs [bp]). (C) Representative gel of the relative telomerase activity (RTA) by ELISA-TRAP (TeloTAGGG Telomerase PCR ELISA-PLUS, Roche Diagnostics) of purified human telomerase upon incubation with BIBR1532 (lanes 1–4), SEW05920 (lanes 5–8), SPB03924 (lanes 11–14), CD11359 (lanes 15–18) (concentration indicated in micromolar), 2% v/v DMSO (lane 9), or heat (lane 10). IC; internal PCR control (216 bp). (D) Levels of RTA (%) after normalization to a 216 bp internal control, as shown in (C). Error bars indicate SD, n = 3. For synthesis of BIBR1532, see Figure S2.
As a control, we observed no inhibition of the Taq polymerase used for amplification of telomerase extension products in the TRAP (data not shown). […]
From the high-throughput analysis, 51 compounds with a neutral effect or that rescued the growth of strains expressing active human telomerase (relative to DMSO) were picked from the master HTS plates and re-analyzed (Figure 2C, and data not shown). […]
(§1) Telomerase activity was assessed using the Telomere Repeat Amplification Protocol (TRAPeze, Millipore) or ELISA-TRAP (TeloTAGGG Telomerase PCR ELISA-PLUS, Roche Diagnostics) following manufacturers’ instructions. […]

[4] = target: T2, telomerase activity in crude HeLa cell extracts (Homo sapiens, UniProt O14746); assay: TRAP assay in crude HeLa cell extracts; type: biochemical
T2 construct: telomerase activity in crude HeLa cell extracts; endogenous in cells; host or cells: HeLa
Protocol: As a control, we observed no inhibition of the Taq polymerase used for amplification of telomerase extension products in the TRAP (data not shown). In addition, as negative controls, two other compounds that were not identified as hits (SPB03922 and RH00646) were tested and confirmed to exert no effect upon telomerase activity in vitro (Figure 3B). Using a semiquantitative assay for the detection of telomerase elongation products (ELISA-TRAP) the in vitro half maximal inhibitory concentration (IC50) values of the compounds fell between 1 and 6.5 μM (Figures 3C and 3D). Similar IC50 values were also observed against purified recombinant murine telomerase (data not shown). These values are higher than that of BIBR1532 (IC50 = 0.1 μM) ([Damm et al., 2001]; [Pascolo et al., 2002]) but within a concentration range typical of first hits from commercial libraries. SEW05920, SPB03924, and CD11359 are heteroaromatic small molecules that differ structurally from BIBR1532 (Figures 3A and S2F).
Supplemental Experimental Procedures
Follow-up analysis of compounds identified in HTS
From the high-throughput analysis, 51 compounds with a neutral effect or that rescued the growth of strains expressing active human telomerase (relative to DMSO) were picked from the master HTS plates and re-analyzed (Figure 2C, and data not shown). These compounds were tested on a control strain, W303-1a expressing hTR and Cdc13-hTERT lacking the Cdc13 DBD, and 7 compounds were excluded from further analysis because they elicited a non-specific growth delay of the control strain. The remaining 44 compounds were subjected to secondary screens against the query strain expressing active human telomerase (n=2). Based on these results, twenty-eight compounds were purchased for further verification against the control and […]
as §1

T2 sequence (O14746 whole entry): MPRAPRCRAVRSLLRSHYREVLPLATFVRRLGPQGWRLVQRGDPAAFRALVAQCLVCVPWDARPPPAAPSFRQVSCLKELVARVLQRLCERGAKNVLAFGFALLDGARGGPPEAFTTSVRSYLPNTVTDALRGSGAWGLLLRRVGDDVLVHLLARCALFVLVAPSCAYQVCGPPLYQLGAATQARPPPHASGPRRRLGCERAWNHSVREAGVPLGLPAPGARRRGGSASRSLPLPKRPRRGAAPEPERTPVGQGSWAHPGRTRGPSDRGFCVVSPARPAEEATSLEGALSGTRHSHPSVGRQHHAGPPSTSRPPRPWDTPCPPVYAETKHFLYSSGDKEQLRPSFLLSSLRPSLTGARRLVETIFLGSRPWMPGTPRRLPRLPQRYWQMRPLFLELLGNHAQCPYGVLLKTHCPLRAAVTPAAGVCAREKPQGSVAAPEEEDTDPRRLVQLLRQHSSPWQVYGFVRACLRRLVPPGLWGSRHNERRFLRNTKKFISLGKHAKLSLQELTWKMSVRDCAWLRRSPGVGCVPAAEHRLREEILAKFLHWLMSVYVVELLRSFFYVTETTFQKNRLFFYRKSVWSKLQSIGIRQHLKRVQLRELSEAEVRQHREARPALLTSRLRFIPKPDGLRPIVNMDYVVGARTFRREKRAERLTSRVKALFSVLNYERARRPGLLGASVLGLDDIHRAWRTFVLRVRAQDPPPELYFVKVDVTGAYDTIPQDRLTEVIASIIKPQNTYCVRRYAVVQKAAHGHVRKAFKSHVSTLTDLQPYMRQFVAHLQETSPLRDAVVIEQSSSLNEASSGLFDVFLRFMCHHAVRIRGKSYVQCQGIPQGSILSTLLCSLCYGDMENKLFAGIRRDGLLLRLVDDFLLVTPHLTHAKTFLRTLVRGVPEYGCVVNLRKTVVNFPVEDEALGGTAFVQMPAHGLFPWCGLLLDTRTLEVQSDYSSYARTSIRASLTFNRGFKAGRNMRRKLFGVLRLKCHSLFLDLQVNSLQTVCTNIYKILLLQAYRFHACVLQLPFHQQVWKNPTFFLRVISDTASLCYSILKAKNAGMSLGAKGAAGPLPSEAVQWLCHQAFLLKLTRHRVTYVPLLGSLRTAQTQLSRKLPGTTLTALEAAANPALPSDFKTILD
T2 sequence (O60832 whole entry partner): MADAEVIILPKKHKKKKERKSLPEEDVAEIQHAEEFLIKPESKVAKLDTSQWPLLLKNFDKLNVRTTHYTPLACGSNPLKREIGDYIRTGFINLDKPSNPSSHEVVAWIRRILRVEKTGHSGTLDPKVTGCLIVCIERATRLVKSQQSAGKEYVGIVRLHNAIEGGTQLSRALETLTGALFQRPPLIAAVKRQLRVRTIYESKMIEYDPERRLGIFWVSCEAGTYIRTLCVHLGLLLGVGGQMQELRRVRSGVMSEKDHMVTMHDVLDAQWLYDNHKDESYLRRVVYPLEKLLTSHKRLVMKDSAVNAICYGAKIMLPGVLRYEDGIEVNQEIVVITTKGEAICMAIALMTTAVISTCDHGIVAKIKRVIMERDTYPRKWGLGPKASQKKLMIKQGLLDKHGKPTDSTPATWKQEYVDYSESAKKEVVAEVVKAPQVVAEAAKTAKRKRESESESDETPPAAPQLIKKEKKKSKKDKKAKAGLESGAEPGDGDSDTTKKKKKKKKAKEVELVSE
T2 sequence (Q9NPE3 whole entry partner): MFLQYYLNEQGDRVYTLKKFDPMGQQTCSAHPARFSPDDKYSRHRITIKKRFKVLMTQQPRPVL
T2 sequence (Q9NX24 whole entry partner): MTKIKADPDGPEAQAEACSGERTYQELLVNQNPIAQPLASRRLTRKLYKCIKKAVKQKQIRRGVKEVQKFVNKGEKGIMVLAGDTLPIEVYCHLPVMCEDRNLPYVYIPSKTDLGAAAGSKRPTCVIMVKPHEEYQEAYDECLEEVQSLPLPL
T2 sequence (Q9NY12 whole entry partner): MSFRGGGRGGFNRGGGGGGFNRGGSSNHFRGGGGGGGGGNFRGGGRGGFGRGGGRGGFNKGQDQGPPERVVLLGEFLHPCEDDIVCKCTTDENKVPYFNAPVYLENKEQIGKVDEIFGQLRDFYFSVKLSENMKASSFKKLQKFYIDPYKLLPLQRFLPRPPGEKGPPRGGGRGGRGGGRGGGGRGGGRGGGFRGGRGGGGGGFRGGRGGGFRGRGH
T2 sequence (Q9BUR4 whole entry partner): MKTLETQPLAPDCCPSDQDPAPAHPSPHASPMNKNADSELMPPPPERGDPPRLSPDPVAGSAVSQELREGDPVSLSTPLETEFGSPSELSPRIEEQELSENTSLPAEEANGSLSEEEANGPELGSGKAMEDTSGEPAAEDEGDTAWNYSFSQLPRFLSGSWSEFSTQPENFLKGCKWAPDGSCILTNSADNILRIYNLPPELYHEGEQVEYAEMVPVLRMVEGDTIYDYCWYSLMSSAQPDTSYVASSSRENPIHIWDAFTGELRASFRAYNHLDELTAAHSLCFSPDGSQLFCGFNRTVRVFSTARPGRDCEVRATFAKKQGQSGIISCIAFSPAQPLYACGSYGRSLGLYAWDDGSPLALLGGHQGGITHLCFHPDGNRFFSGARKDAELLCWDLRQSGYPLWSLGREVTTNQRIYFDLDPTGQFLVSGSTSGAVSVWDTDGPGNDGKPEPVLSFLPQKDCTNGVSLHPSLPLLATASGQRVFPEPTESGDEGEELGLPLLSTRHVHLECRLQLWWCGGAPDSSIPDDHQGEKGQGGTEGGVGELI
T1 sequence (O14746 whole entry): as the sequence (O14746 whole entry) above

Row | SMILES | toxicity in hyperpermeable strain pdr1DBD-cyc8 (pdr1DBD-cyc8 strain) | effect upon growth of control strains (W303-1a control strains) | IC50 [1] [nM] | effect upon growth of yeast expressing human telomerase ([2]; 500, 150, 50, 10 or 1 μM) | inhibition of purified recombinant human telomerase (TRAP) [3] | inhibition of telomerase activity in crude HeLa cell extracts (TRAP) [4] | growth recovery in follow-up screens ([2]; follow-up subscreens, re-plated from master HTS plate and repurchased compound) [h] | growth recovery in the initial HTS ([2]; initial HTS, 20 μM) | Z Score [2] | Time (hr) Difference at an OD595 of 0.62 Relative to DMSO ([2]; compound 20 μM, time course 2, growth rescue of strain expressing active human telomerase) [h]
1 | C/C(=C\C(=O)Nc1ccccc1C(=O)O)c1ccc2ccccc2c1 [BIBR1532, 2-[(E)-3-naphthalen-2-yl-but-2-enoylamino]-benzoic acid] | toxic; also recorded: cytotoxic across most concentrations | had no effect | 100 | had no effect | – | – | – | – | – | –
2 | Cc1ccc(S(=O)(=O)NC(=O)Nc2ccc(Sc3ccccc3)nc2Sc2ccccc2)cc1 [SEW05920] | – | – | – | – | inhibited telomerase activity in vitro; also recorded: dose-dependent inhibition | dose-dependent inhibition | ~8 | did not exhibit significant growth recovery | 1.7 | –
3 | N=C(N)Nc1nc(-c2cc(Cl)sc2Cl)cs1 [CD11359] | – | – | – | – | dose-dependent inhibition | dose-dependent inhibition | – | – | 1.7 | –
4 | Cc1cc(C(=O)O/N=C(\N)CSc2ncccc2C(F)(F)F)no1 [SPB03924] | – | – | – | – | dose-dependent inhibition | dose-dependent inhibition | – | – | 2.3 | 12
